From a melting point compilation (Tetko et al.; mined from patent text by program, amines drawn as free bases though some values may be those of a salt)

SMILES | melting point
COc1ccc(-n2nnc(-c3ccc(Cl)cc3F)c2N)cc1 | 148 to 150 °C
COC(=O)c1cccc2c1c1c(O)c3c(cc1n2Cc1ccccc1)CCCC3 | 174 to 176 °C
CCCCCCCC(=O)NCCCCCCO | 77 to 78 °C
CCSc1nc(-c2ccc(O)cc2)cn1C | 210 °C
CC(C)(C)c1cc(CCC(=O)NNC(=O)C=Cc2ccccc2)cc(C(C)(C)C)c1O | 224 to 225 °C
CC(=O)Nc1nc(N(C(C)=O)C(C)=O)c(CC=O)c(=O)[nH]1 | 169 to 170 °C
O=C(Cc1ccccc1)Nc1cnc2ccccc2c1O | 253 to 255 °C
COC(=O)c1ccc2c(c1)C(=O)c1ccccc1CO2 | 128 to 129 °C
Cc1cccc(CCCCCCCCC(=O)Cl)c1 | 96 to 98 °C
O=[N+]([O-])c1ccc(S(=O)(=O)NCCc2ccccc2)c([N+](=O)[O-])c1 | 127 to 128 °C
CCn1c2ccccc2c2cc(N(c3ccccc3)c3ccc(-c4ccc(N(c5ccccc5)c5ccc6c(c5)c5ccccc5n6CC)cc4)cc3)ccc21 | 250 to 252 °C
N=C(Nc1ccc(Cl)cc1)Nc1ncccc1Cc1ccccc1F | 175 to 176 °C
CCC(C)(O)C(=O)Nc1ccc(S(=O)(=O)c2ccccc2)cc1 (stereo unspecified) | 163 to 165 °C
Oc1cccc2c1OCO2 | 62 to 63 °C
NS(=O)(=O)c1ccc(-n2nc(C(F)(F)F)cc2-c2ccc(-c3cscn3)c(O)c2)cc1F | 224 to 226 °C
COc1cc2c(cc1-c1nocc1-c1ccccc1C#N)C(C)(C)CCC2(C)C | 202 to 203 °C
COC(=O)CCC(C)C1CC=C2C3=C(CCC21C)C1(C)CCC(O)C(C)(C)C1CC3 (stereo unspecified) | 156 to 157 °C
Nc1c(Br)cccc1CS(=O)(=O)c1ccccc1 | 174 to 177 °C
CC(=O)[C@H]1[C@H](C(=O)O)C1(C)C (relative stereo) | 111 °C
CCC(=S)NC[C@H]1CN(c2ccc(N3CCN(C#N)CC3)c(F)c2)C(=O)O1 | 182 to 184 °C
CN1C(=O)C(NC(=O)Nc2ccccc2)N=C(c2ccccc2)c2ccccc21 (stereo unspecified) | 260 to 261 °C
O=C(Nc1ccccc1)O[C@@H]1CN=C(c2ccc(OC(F)(F)F)cc2)O[C@H]1c1ccccc1 (racemic) | 128 °C
COC(=O)c1cc(Cl)c2c(c1Cl)OC(c1ccccc1)(c1ccccc1)O2 | 69 to 70 °C
Cc1ccc(O)c(-c2ccc(Br)cc2)n1 | 196 to 199 °C

SMILES | melting point
COc1ccc(CCNS(=O)(=O)Cc2ccc3[nH]cc(CCN(C)C)c3c2)cc1 | 67 to 70 °C
CCN(CCCc1c[nH]c2ccc(F)cc12)C1COc2c(F)ccc(C(=O)NC)c2C1 (stereo unspecified) | 118 °C
CC(C)(C)OC(=O)N[C@H]1CC[C@H](ON2C(=O)c3ccccc3C2=O)CC1 | 134 to 135 °C
CSCCNC(=O)c1cccc(-c2ccc3c(c2)C(Oc2ccc(Cl)cc2Cl)CC3)c1 (stereo unspecified) | 141 to 142 °C
O=C(O)c1ccc2c(c1)S(=O)c1ccccc1O2 (stereo unspecified) | 223 °C
Cc1cc2cc(CN3CCCC3)cnc2cc1NC(=O)c1ccc(-c2ccccc2)c(F)c1 | 167 to 170 °C
C#Cc1ccc(C(CC2CCCC2)C(=O)O)cc1 (stereo unspecified) | 80 to 83 °C
CCOC(=O)C(=CNc1cc(O)cc(O)c1)C(=O)OCC | 190 to 192 °C
CCCc1nc2c(N)nc3cc(-c4cccc(C(=O)N5CCCC5)c4)ccc3c2s1 | 177 to 180 °C
COC(=O)c1ccc(-c2nc(-c3cc(C)oc3C)cs2)cc1 | 103 to 105 °C
Cc1nc(NCCSCc2nc[nH]c2C)[nH]c(=O)c1CCc1ccccc1 | 222 to 224 °C
CC(C#Cc1ccc(Oc2ccccc2)cc1)N(O)C(N)=O (stereo unspecified) | 141 to 142 °C
CCCCCCCCCCOc1cc(OCCCCCCCCCC)cc(C(=O)C(=O)N(CC(=O)O)CC(=O)O)c1 | 76 to 78 °C
CCOC(=O)CC1(Cc2ccncc2)C(=O)N(N2CCOCC2)c2ccccc21 (stereo unspecified) | 168 °C
COC(=O)[C@]12CN(Cc3ccccc3)C[C@@H]1C(c1ccc(OC)cc1)=CC[C@@]2(C)c1ccccc1 (racemic) | 132 °C
O=C(NC(=O)c1c(F)cccc1F)Nc1ccc(F)c(C(F)(F)F)c1Cl | 214 °C
Cc1nc(Cn2nc(-c3c(-c4ccccc4)nn4ccccc34)ccc2=O)cs1 | 196 to 198 °C
Cc1cc(C#N)c(=O)[nH]c1C | 258 to 263 °C
Cc1ccccc1OCC(O)CNCCOc1ccc(C(N)=O)cn1 (stereo unspecified) | 139 to 141 °C
CCOC(=O)c1c(C(F)(F)F)nc(C(F)(F)Cl)c(C(=O)OC)c1Nc1ccccc1 | 91 to 92 °C
CC1(C)CCC(C)(C)c2c(CC#Cc3ccc(C(=O)O)cc3)cc(-c3ccccc3)cc21 | 228 °C
O=C(CN1CCCCC1)Nc1ccc2c(c1)C(=O)c1cc(NC(=O)CN3CCCCC3)ccc1C2=O | 243 °C
CCOC(=O)c1cnc2sc(-c3cccnc3)nn2c1=O | 200 to 202 °C
CC(C)(C)c1ccc(-c2ccc3c(c2)C=C(C(=O)O)CCS3(=O)=O)cc1 | 289 to 291 °C

SMILES | melting point
CCOC(=O)c1cc2cc(N)ccc2nn1 | 204 to 206 °C
O=C(O)COc1c(-c2cccc(Cl)c2)cc(C(=O)NCCCC2CCCC2)cc1-c1cccc(C(F)(F)F)c1 | 173 to 175 °C
O=C1c2cc(OCc3ccccc3)ccc2OCC1Oc1cccnc1 (stereo unspecified) | 133 to 134 °C
CS(=O)(=O)c1ccc(Oc2ccc(CC(=O)O)cc2)cc1 | 122 to 125 °C
COc1cc(OC)nc(C2OC(=O)c3c(-c4cccs4)ccnc32)n1 (stereo unspecified) | 120 to 123 °C
N#Cc1ccc(C(F)(F)F)cn1 | 36 to 38 °C
CC1(C)C(C(=O)O)C1(C)C | 120 °C
COC(=O)N(C1c2ccccc2-c2ccccc21)[C@H]1[C@H](C(=O)O)C[C@H]2C[C@@H]1C2(C)C | 155 to 157 °C
N#Cc1ccccc1OCCCN1CCC(C(c2ccc(F)cc2)c2ccc(F)cc2)CC1 | 88.5 to 90 °C
Nc1c2c(nc3ccccc13)CCC=C2 | 178 to 179 °C
CC(C)CCC[C@H](NC(=O)[C@@H](N)Cc1c[nH]cn1)[C@@H](O)C1CCCCC1 | 126 to 130 °C
CCCc1nc2c(N)nc3ccccc3c2n1CCCC(=O)N1CCOCC1 | 200 to 202 °C
CCOC(=O)C(=O)Cc1ncc([N+](=O)[O-])n1C | 141 °C
CCOC(=O)c1ccc(OCCCCCCc2cccc(OCc3ccccc3)c2OCc2ccccc2)cc1 | 63 to 65 °C
Cc1oc2c(C(O)CO)cccc2c1C (stereo unspecified) | 93 to 95 °C
CCOC(=O)c1cn(-c2ccc(F)cc2)c2nc(Cl)c(F)cc2c1=O | 230 to 232 °C
Cc1cc(NC2=NN(c3ccccc3)CC2)cc(C)c1O | 154 to 158 °C
Cc1cn2ccc(N)c(I)c2n1 | 185 °C
Cc1c(F)cc(C(=O)NCCC(C)C)cc1-c1ccc(C(=O)NCC(C)(C)C)cc1C(=O)Nc1nccs1 | 159 to 164 °C
CCCCCCCCCCCCc1ccccc1CC(O)(SCCC(=O)O)C(N)=O (stereo unspecified) | 97.5 to 102 °C
C#Cc1cnc2c(NC(=O)c3c(Cl)cccc3Cl)cccc2c1 | 219 to 220 °C
NCCOc1ccc(C=CC(=O)N2CCc3c([nH]c4ccccc34)C2c2ccc3c(c2)CCO3)cc1 (stereo unspecified) | 186 °C
Cc1c(-c2ccccc2)nn(C)c1C(=O)O | 161 to 163 °C
